# From patent publication US12629388B2, “Intradialytic use of sodium nitrite” (Hope Medical Enterprises, Inc., priority 2017, dated 2026)
# Where two headings read alike, the source gives them in different places.
# How the values were obtained:
# [1] = dialysate bicarbonate concentrate; for Nitrite Concentration by Assay: room temperature, expected 38.1 mg/L
# Method: (§1) Concentration of nitrite in samples was assayed by ion chromatography. The ion chromatograph was equipped with a conductivity detector, self-regenerating suppression system, eluent generator, and a Dionex IonPacAS19 analytical column. The nitrite concentration in the samples was measured and calculated against an external sodium nitrite standard. USP Sodium Nitrite Reference Standard (Item Number 1614454) was the testing standard (United States Pharmacopeia. Rockville, Maryland).
# Example 2 was performed to determine the stability of sodium nitrite in dialysate bicarbonate concentrate solution. At room temperature, 300 mg sodium nitrite was added to 7,700 mL of dialysate bicarbonate concentrate solution. The nitrite concentration of the dialysate bicarbonate concentrate solution was analyzed by ion chromatography 1) before addition of sodium nitrite; 2) 5 minutes after the addition of sodium nitrite; and 3) 2 hours after the addition of sodium nitrite.
# [2] = pre-mixed 1 L dialysate, pH 7.32 at 24.4° C. after addition; expected 2.997 mg/L
# Method: as §1
# [3] = during the first hour of hemodialysis; cited from earlier work
# [4] = Method: Example 1 was performed to determine the stability of sodium nitrite in aqueous solution when acid is added. A 100 mL sample of sodium nitrite solution with a concentration of 30 mg/mL was tested for the presence of nitrogen oxide gases (NO, NO2, N2O3, and N2O4) using an Orion Model 95-46 Nitrogen Oxide (NOx) electrode and a pH meter. With constant stirring, the mV reading with the NOx electrode and pH reading with the pH electrode were recorded after successive additions of 100 μL of either 0.02 N or 1 N hydrochloric acid.
# [5] = for Nitrite Concentration After Addition of Sodium Nitrite (Time = 60 Min): average of two samples
# Method: as §1
# Dialysate bicarbonate concentrate solution was prepared by adding 1 package of Centrisol® MB-330 Series Sodium Bicarbonate Concentrate powder (650 g) to 7.7 liters of purified water.
# The hemodialysis machine mixed the bicarbonate concentrate solution and acid concentrate solution with the dilution ratio of 1 part of an acid concentrate solution, 1.72 parts of a bicarbonate concentrate solution, and 42.38 parts of purified water. The machine was primed in bypass mode (dialysate and ultrafiltration rates set at zero) using normal saline. After priming, the hemodialysis machine was run in “Therapy Mode” with the following settings: blood flow rate 300 ml/minute, dialysate flow rate 600 mL/minute, ultrafiltration rate 0 mL/minute.
# An aqueous solution of sodium nitrite was prepared by dissolving 3 mg of sodium nitrite in 1 liter of purified water. […] This valve was placed in the dialysate tubing approximately eight inches upstream of the dialyzer (pre-filter). Two sampling ports were placed four inches upstream (pre-dialyzer sampling port) and ten inches downstream (post-dialyzer sampling port) from the dialyzer to collect samples of dialysate for […] assay by ion chromatography.
# The infusion pump infused the sodium nitrite solution into the tubing through the valve at a rate of 250 mL/hour (4.16 mL/minute).
# Normal saline flowed into the dialyzer at a rate of 300 mL/minute from the Arterial line and exited the dialyzer through the Venous line. Samples of saline were collected from the venous side of the dialyzer.
# [6] = mixed dialysate exiting Fresenius 2008K hemodialysis machine; expected 1.46 mg/L
# Method: as §1
# The machine was primed in bypass mode (dialysate and ultrafiltration rates set at zero) using normal saline.
compound,measurement,setting,value
"O=NO [Sodium Nitrite, sodium nitrite]",Nitrate Concentration,[1]; 5 minutes after addition,None
same,Nitrite Concentration by Assay,[1]; 5 minutes after addition,38.0 mg/L
same,Nitrate Concentration,[1]; 2 hours after addition,None
same,Nitrite Concentration by Assay,[1]; 2 hours after addition,38.5 mg/L
same,Nitrite Concentration by Assay,[2],1.149 mg/L
same,decline of the concentration of nitrite in the plasma,[3],over 60%
same,pH at which nitrogen oxides was detected,"[4]; 30 mg/mL solution, successive addition of hydrochloric acid, detection limit 1 ppm NOx",6.7
same,initial pH of the sodium nitrite solution,"[4]; 100 mL solution, 30 mg/mL, before acid addition",8.73
same,response of the Nitrogen Oxide electrode,[4]; at pH 4.9,99.5 mV
same,response of the Nitrogen Oxide electrode,[4]; at pH 6.7,8.0 mV
same,stability on exposure to acid (in words),[4]; extent of decomposition generally inversely proportional to the pH,decomposes when exposed to acid
same,Nitrite Concentration After Addition of Sodium Nitrite (Time = 60 Min),[5]; dialysate after dialyzer,235 nM
same,Nitrite Concentration After Addition of Sodium Nitrite (Time = 60 Min),"[5]; dialysate before dialyzer, 3 mg/L solution infused at 250 mL/hour, dialysate flow 600 mL/minute",451 nM
same,stability when mixed with dialysate within dialysate tubing (in words),[5]; infused between the hemodialysis machine and the dialyzer membrane,stable
same,Nitrite Concentration After Addition of Sodium Nitrite (Time = 60 Min),[5]; saline solution after dialyzer (venous side),183 nM
same,Nitrite Concentration by Assay,[6],None
